Columns and labels:
[1] = target: T1, Casein kinase II subunit alpha (Homo sapiens, UniProt P68400); assay: Inhibition of CK2alpha (unknown origin)
[2] = target: T1, Casein kinase II subunit alpha; assay: Inhibition of CK2alpha (unknown origin) using RRRADDSDDDDD as substrate in presence of [gamma33P]-ATP by autoradiography
[3] = target: Casein kinase I delta/epsilon (Homo sapiens, UniProt P48730+P49674); assay: Inhibition of CK1delta/CK1epsilon (unknown origin); type: protein-complex assay
[4] = target: Casein kinase I isoform alpha (Homo sapiens, UniProt P48729); assay: Inhibition of CK1alpha (unknown origin)
Casein kinase I isoform alpha, sequence (P48729 whole entry, canonical isoform): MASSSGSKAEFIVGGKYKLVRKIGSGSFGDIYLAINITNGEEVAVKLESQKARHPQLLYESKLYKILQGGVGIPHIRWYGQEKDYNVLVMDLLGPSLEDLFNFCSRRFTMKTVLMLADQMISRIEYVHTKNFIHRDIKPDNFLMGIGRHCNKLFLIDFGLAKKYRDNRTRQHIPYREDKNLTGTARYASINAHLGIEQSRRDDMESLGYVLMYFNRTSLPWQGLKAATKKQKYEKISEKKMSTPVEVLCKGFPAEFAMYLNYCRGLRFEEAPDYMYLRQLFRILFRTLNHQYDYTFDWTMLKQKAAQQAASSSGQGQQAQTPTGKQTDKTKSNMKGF

Casein kinase I = assay: Inhibition of CK1 (unknown origin); type: protein assay, Homo sapiens

T1 sequence (P68400 whole entry): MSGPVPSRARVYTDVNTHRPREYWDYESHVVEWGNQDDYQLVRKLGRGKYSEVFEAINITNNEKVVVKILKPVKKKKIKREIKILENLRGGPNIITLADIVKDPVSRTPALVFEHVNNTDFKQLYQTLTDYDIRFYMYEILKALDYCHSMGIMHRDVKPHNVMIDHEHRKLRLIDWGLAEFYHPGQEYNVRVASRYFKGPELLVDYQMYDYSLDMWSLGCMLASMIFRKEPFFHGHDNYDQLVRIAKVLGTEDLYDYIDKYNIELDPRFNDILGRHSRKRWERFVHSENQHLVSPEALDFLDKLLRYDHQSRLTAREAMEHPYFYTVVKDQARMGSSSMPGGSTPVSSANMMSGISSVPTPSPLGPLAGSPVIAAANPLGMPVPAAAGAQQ
Casein kinase I delta/epsilon, sequence (P48730 whole entry, canonical isoform): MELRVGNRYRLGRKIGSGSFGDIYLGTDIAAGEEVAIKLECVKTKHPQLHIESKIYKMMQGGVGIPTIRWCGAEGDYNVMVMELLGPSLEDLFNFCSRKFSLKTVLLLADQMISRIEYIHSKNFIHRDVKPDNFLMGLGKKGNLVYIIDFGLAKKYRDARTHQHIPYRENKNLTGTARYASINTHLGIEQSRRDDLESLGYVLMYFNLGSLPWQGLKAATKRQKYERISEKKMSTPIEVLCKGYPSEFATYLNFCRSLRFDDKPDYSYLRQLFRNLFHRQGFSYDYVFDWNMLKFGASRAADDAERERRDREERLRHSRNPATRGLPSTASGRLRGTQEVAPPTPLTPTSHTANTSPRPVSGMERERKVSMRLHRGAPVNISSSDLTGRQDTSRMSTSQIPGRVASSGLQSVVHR
Casein kinase I delta/epsilon, sequence (P49674 whole entry, canonical isoform): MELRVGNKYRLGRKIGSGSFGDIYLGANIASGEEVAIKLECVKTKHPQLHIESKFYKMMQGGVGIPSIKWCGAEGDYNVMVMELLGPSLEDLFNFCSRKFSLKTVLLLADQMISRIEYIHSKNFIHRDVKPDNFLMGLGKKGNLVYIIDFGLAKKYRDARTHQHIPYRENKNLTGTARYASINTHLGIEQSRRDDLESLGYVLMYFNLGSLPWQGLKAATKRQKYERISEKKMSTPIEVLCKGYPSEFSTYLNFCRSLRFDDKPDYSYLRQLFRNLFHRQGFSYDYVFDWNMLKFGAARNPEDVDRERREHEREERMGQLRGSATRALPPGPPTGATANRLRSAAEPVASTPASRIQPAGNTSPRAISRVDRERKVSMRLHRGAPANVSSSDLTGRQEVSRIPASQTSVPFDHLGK

SMILES	Ki [1]	also measured
O=C(O)/C=C/c1cc(Br)c(Br)c(Br)c1Br		Ki [2]: 0.077 µM
COc1cc(OC)c(/C=C2\C(=O)Nc3ccccc32)c(OC)c1		IC50 [3]: 1 µM; IC50 [4]: 16 µM
O=c1oc2c(Br)c(O)ccc2c2ccc(O)cc12	0.007 µM	
NCCNS(=O)(=O)c1ccc(Cl)c2ccncc12		IC50 (Casein kinase I): 9.5 µM
O=c1oc2c(O)c(O)cc3c(=O)oc4c(O)c(O)cc1c4c23 [ELLAGIC ACID]	0.02 µM	

The remaining molecules from weak to strong by Ki [1], led by results:

Ki [1]	SMILES	also measured
0.8 µM	O=C1c2c(O)cccc2C(=O)c2c([N+](=O)[O-])ccc(O)c21	
0.78 µM	O=c1c2c(O)cccc2oc2c([N+](=O)[O-])ccc(O)c12	
0.35 µM	O=c1c(O)c(-c2ccc(O)c(O)c2)oc2cc(O)ccc12 [FISETIN]	
0.22 µM	CCCCCCCCCCCC1=C(O)C(=O)C2=C(OC(N)=C(C#N)C2[N+](=O)[O-])C1=O (stereo unspecified)	
0.06 µM	Cc1c(Br)c(=O)oc2c(Br)c(O)ccc12	
